In ChEMBL document CHEMBL4184249, “Structural development of tetrachlorophthalimides as liver X receptor β (LXRβ)-selective agonists with improved aqueous solubility” (Bioorg Med Chem Lett, 2018):
≈ marks a conversion by molar mass, not a printed value. Calls of active or inactive are those of the source. The calls are words filed in the database; no cut-off is given here.

Tests used:
[1] = target: T1, Retinoic acid receptor RXR-gamma (Homo sapiens) (UniProt P48443); assay: Agonist activity at GAL4-tagged RXRgamma (unknown origin) expressed in HEK293 cells co-expressing CMX-beta-galactosidase at 0.3 to 30 uM incubated for 16 hrs by luciferase reporter gene assay; assay type: cell-based
T1 sequence (whole entry): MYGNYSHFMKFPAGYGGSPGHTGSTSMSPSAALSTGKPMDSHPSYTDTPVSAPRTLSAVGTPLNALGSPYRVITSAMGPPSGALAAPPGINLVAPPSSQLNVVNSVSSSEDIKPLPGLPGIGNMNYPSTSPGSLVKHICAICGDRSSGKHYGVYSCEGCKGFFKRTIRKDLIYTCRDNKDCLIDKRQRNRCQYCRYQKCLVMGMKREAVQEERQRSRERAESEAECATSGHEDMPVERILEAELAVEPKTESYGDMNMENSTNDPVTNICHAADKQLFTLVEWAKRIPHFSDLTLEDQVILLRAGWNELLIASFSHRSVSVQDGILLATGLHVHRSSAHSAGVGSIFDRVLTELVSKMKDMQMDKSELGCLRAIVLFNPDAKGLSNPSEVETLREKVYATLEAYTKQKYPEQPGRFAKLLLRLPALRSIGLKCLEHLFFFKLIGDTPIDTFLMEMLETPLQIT

[2] = Aqueous solubility of the compound in EtOH: 1/15 M phosphate buffer at pH 7.4 1:1 by HPLC method; assay type: physicochemical
[3] = target: T2, Oxysterols receptor LXR-alpha (Homo sapiens) (UniProt Q13133); assay: Agonist activity at LXRalpha ligand-binding domain (unknown origin) at 0.3 uM incubated for 1.5 hrs using fluorescein-labeled coactivator peptide by TR-FRET competitive binding assay relative to T0901317
T2 sequence (whole entry): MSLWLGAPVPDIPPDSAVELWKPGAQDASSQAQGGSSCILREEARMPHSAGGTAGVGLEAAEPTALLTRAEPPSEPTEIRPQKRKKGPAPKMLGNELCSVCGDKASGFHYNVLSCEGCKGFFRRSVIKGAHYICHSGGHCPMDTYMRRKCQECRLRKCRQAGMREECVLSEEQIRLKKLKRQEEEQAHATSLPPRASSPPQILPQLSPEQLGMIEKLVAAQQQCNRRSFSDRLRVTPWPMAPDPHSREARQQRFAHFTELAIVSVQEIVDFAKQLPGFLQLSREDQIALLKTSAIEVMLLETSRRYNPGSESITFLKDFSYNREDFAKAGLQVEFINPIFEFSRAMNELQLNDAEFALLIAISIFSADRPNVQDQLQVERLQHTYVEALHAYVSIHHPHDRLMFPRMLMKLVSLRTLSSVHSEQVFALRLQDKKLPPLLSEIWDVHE

## O=C1c2c(Cl)c(Cl)c(Cl)c(Cl)c2C(=O)N1c1ccccc1/C=C/c1cccs1
[1]
  Activity: inactive
[2]
  solubility: 0.015 µg/mL (≈ 0.032 µM)
[3]
  Efficacy: 6%
